# Laboratory results reported in patent publication US10947215B2, “Heteroaryl compounds and their use as therapeutic drugs” (Dong-A Socio Holdings Co., Ltd., priority 2015, dated 2021).
# Test system: Ba/F3-CDM cells (Ba/F3 transfected with CD8-MerTK)
# Experiment: In cell MER kinase assay, Ba/F3-CDM cell proliferation without IL-3 (Celltiter-Glo, GI50)
# Type: cell-based, murine
# Settings: 48 hours, read-out: Cell growth inhibition (GI50)
# Experimental: In Cell MER Kinase Assay Using BaF3 Cellular System
# To establish an in cell kinase assay for MerTK kinase, the IL-3 dependent Ba/F3 cells of murine lymphoid origin was transfected with CD8-MerTK. […] For a routine cellular assay, Ba/F3-CDM cells were seeded at 2,000 cells per well in 384-well cell culture plate containing DMEM/10% FBS culture media and incubated for 24 hours before addition of compounds pre-diluted in culture media. Following compound treatment, cells were further incubated for 48 hours and the proliferation was measured. To discriminate a Ba/F3 growth inhibition by a specific inhibition of MerTK kinase following compound treatment vs growth inhibition due to a non-specific unintended cytotoxicity of compounds, we routinely carried out control sets of Ba/F3 cells in parallel that grown in IL3-supplemented growth media. In the presence of IL-3, the proliferation of Ba/F3 is no longer dependent on the MerTK activity. Cell growth and proliferation was measured with Celltiter-Glo™ system (Promega, USA) according to the manufacturer's instruction. The half-maximal growth inhibitory concentration (GI50) value was calculated with Prism6.0 software (GraphPad, USA).
row,Structure (SMILES),GI50
1,"CCc1cc(CO[C@H]2CNC[C@@H]2NC(=O)c2cc(-c3ccc(C(=O)NC4CCN(C)CC4)cc3)cnc2N)ccc1C [Example 419, 2-amino-N-((3S,4S)-4-((3-ethyl-4-methylbenzyl)oxy)pyrrolidin-3-yl)-5-(4-((1-methylpiperidin-4-yl)carbamoyl)phenyl)nicotinamide]",> 1000 nM
2,"CC1CN[C@@H](C)CN1Cc1ccc(-c2ccc(CO[C@H]3CCC[C@@H]3NC(=O)c3cc(-c4cnn(C)c4)cnc3N)cc2)cc1 (stereo partly drawn) [Example 191, 2-amino-N-((1S,2S)-2-((4′-((trans-2,5-dimethylpiperazin-1-yl)methyl)-[1,1′-biphenyl]-4-yl)methoxy)cyclopentyl)-5-(1-methyl-1H-pyrazol-4-yl)nicotinamide]",100 to 500 nM
3,"CCN1CCN(Cc2ccc(-c3ccc(CO[C@H]4CCC[C@@H]4NC(=O)c4cc(-c5cnn(C)c5)cnc4N)cc3)cc2)CC1 [Example 183, 2-amino-N-((1S,2S)-2-((4′-((4-ethylpiperazin-1-yl)methyl)-[1,1′-biphenyl]-4-yl)methoxy)cyclopentyl)-5-(1-methyl-1H-pyrazol-4-yl)nicotinamide]",< 100 nM
4,"Cc1ccc(CO[C@H]2CCC[C@@H]2NC(=O)c2cc(-c3ccc(CN4CCC(N5CCCC5)CC4)c(F)c3)cnc2N)cc1C [Example 325, 2-amino-N-((1S,2S)-2-((3,4-dimethylbenzyl)oxy)cyclopentyl)-5-(3-fluoro-4-((4-(pyrrolidin-1-yl)piperidin-1-yl)methyl)phenyl)nicotinamide]",> 1000 nM
5,"Cc1cc(-c2ccc(CO[C@H]3CCC[C@@H]3NC(=O)c3cc(-c4cnn(C)c4)cnc3N)cc2)ccc1CN1CCN(C)CC1 [Example 198, 2-amino-5-(1-methyl-1H-pyrazol-4-yl)-N-((1S,2S)-2-((3′-methyl-4′-((4-methylpiperazin-1-yl)methyl)-[1,1′-biphenyl]-4-yl)methoxy)cyclopentyl)-nicotinamide]",< 100 nM
6,"CN1CCC(Cc2ccc(-c3ccc(CO[C@H]4CCC[C@@H]4NC(=O)c4cc(-c5cnn(C)c5)cnc4N)cc3)cc2)CC1 [Example 239, 2-amino-5-(1-methyl-1H-pyrazol-4-yl)-N-((1S,2S)-2-((4′-((1-methylpiperidin-4-yl)methyl)-[1,1′-biphenyl]-4-yl)methoxy)cyclopentyl)nicotinamide]",< 100 nM

# Continued, values first:
row,GI50,Structure (SMILES)
1,< 100 nM,"CN1CCN(CCc2ccc(-c3ccc(CO[C@H]4CCC[C@@H]4NC(=O)c4cc(-c5cnn(C)c5)cnc4N)cc3)cc2)CC1 [Example 161, 2-amino-5-(1-methyl-1H-pyrazol-4-yl)-N-((1S,2S)-2-((4′-(2-(4-methylpiperazin-1-yl)ethyl)-[1,1′-biphenyl]-4-yl)methoxy)cyclopentyl)nicotinamide]"
2,< 100 nM,"CC(c1ccc(-c2ccc(CO[C@H]3CCC[C@@H]3NC(=O)c3cc(-c4cnn(C)c4)cnc3N)cc2)cc1)N1CCN(C)CC1 (stereo partly drawn) [Example 208, 2-amino-5-(1-methyl-1H-pyrazol-4-yl)-N-((1S,2S)-2-((4′-(1-(4-methylpiperazin-1-yl)ethyl)-[1,1′-biphenyl]-4-yl)methoxy)cyclopentyl)nicotinamide]"
3,< 100 nM,"CC(c1ccc(-c2ccc(CO[C@H]3CCC[C@@H]3NC(=O)c3cc(-c4cncc(F)c4)cnc3N)cc2)cc1)N1CCN(CCO)CC1 (stereo partly drawn) [Example 236, 6-amino-5′-fluoro-N-((1S,2S)-2-((4′-(1-(4-(2-hydroxyethyl)-piperazin-1-yl)ethyl)-[1,1′-biphenyl]-4-yl)methoxy)cyclopentyl)-[3,3′-bipyridine]-5-carboxamide]"
4,< 100 nM,"CN1CCN(Cc2ccc(-c3ccc(CO[C@H]4CCC[C@@H]4NC(=O)c4cc(-c5cnn(C)c5)cnc4N)cc3)cc2C(F)(F)F)CC1 [Example 197, 2-amino-5-(1-methyl-1H-pyrazol-4-yl)-N-((1S,2S)-2-((4′-((4-methylpiperazin-1-yl)methyl)-3′-(trifluoromethyl)-[1,1′-biphenyl]-4-yl)methoxy)-cyclopentyl)nicotinamide]"
